# Results: US9562035B2, “Benzamide derivative useful as FASN inhibitors for the treatment of cancer” (Janssen Pharmaceutica NV, priority 2013, dated 2017)
# pIC50: −log10 of the molar value.
# Key:
# A2780 ovarian cells [1] = test: A2780 Ovarian Cell Proliferation Assay in Lipid Reduced Medium, with Palmitate (control); type: cell-based; conditions: Homo sapiens, A2780; lipid reduced medium, 25 μM palmitate, 96 h, MTT; read-out: Proliferation A2780 with Palmitate pIC50 (converted)
# In short: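 Read-out was MTT absorbance at 544 nm after 96 h at 37 °C. Cells grown overnight in RPMI1640/10% FCS were moved to 10% lipid-reduced serum with compound plus palmitate (final 25 μM, 0.2% fatty-acid-free BSA, 0.2% DMSO). IC50 came from least-squares curve fitting, expressed as −log(IC50).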
# [2] = target: T1, FASN Keto-reductase Domain (Homo sapiens, UniProt P49327); test: Fatty Acid Synthase Keto-Reductase Domain (FASN KR) Inhibition; type: biochemical; conditions: mean where tested more than once; read-out: FASN K-R Domain pIC50 (converted)
# T1 construct: 10 μL hFASN enzyme (full length, 300 ng, purified in house) and 360 μM NADPH; made in house
# In short: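 Keto-reductase activity followed as NADPH consumption (A340 drop between 0 and 20 min, room temperature) using in-house full-length hFASN, 360 μM NADPH and ethyl acetoacetate substrate (180 mM stock), pH 7.5 phosphate buffer.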
# A2780 ovarian cells [3] = test: A2780 Ovarian Cell Proliferation Assay in Lipid Reduced Medium, without Palmitate; type: cell-based; conditions: Homo sapiens, A2780; lipid reduced medium, without palmitate, 96 h, MTT; read-out: Proliferation A2780 w/o Palmitate pIC50 (converted)
# In short: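 A2780 cells were seeded in 10% FCS medium and switched next day to 10% lipid-reduced serum without palmitate. Compounds at 0.01–30 μM were added with 0.2% DMSO, 0.2% fatty-acid-free BSA and 0.25% ethanol final. After 96 h, MTT absorbance at 544 nm was normalized to plate controls, and IC50/pIC50 came from a 4-parameter logistic fit.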
# [4] = target: T2, hFASN enzyme (full length) (Homo sapiens, UniProt P49327); test: Fatty Acid Synthase (FASN) Inhibition Scintillation Proximity Assay; type: biochemical; conditions: for pIC50: mean where tested more than once, ~ = standard error of pIC50 larger than 0.5; for inhibition at 10 µM: read-out: FASN % Effect @1E−05M
# T2 construct: 10 μL hFASN enzyme (full length, 300 ng, purified in house); made in house
# In short: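 Eight compound concentrations (0.01–30 μM) tested in pH 7.5 phosphate buffer with DTT; human full-length enzyme converted [3H]-acetyl-CoA plus malonyl-CoA, with NADPH, over 60 min at room temperature. Hydrophobic [3H]-palmitate detected by bead proximity scintillation imaging; control-normalised data fitted for IC50/pIC50.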
# T1 sequence (P49327 whole entry, the tested form may be a part): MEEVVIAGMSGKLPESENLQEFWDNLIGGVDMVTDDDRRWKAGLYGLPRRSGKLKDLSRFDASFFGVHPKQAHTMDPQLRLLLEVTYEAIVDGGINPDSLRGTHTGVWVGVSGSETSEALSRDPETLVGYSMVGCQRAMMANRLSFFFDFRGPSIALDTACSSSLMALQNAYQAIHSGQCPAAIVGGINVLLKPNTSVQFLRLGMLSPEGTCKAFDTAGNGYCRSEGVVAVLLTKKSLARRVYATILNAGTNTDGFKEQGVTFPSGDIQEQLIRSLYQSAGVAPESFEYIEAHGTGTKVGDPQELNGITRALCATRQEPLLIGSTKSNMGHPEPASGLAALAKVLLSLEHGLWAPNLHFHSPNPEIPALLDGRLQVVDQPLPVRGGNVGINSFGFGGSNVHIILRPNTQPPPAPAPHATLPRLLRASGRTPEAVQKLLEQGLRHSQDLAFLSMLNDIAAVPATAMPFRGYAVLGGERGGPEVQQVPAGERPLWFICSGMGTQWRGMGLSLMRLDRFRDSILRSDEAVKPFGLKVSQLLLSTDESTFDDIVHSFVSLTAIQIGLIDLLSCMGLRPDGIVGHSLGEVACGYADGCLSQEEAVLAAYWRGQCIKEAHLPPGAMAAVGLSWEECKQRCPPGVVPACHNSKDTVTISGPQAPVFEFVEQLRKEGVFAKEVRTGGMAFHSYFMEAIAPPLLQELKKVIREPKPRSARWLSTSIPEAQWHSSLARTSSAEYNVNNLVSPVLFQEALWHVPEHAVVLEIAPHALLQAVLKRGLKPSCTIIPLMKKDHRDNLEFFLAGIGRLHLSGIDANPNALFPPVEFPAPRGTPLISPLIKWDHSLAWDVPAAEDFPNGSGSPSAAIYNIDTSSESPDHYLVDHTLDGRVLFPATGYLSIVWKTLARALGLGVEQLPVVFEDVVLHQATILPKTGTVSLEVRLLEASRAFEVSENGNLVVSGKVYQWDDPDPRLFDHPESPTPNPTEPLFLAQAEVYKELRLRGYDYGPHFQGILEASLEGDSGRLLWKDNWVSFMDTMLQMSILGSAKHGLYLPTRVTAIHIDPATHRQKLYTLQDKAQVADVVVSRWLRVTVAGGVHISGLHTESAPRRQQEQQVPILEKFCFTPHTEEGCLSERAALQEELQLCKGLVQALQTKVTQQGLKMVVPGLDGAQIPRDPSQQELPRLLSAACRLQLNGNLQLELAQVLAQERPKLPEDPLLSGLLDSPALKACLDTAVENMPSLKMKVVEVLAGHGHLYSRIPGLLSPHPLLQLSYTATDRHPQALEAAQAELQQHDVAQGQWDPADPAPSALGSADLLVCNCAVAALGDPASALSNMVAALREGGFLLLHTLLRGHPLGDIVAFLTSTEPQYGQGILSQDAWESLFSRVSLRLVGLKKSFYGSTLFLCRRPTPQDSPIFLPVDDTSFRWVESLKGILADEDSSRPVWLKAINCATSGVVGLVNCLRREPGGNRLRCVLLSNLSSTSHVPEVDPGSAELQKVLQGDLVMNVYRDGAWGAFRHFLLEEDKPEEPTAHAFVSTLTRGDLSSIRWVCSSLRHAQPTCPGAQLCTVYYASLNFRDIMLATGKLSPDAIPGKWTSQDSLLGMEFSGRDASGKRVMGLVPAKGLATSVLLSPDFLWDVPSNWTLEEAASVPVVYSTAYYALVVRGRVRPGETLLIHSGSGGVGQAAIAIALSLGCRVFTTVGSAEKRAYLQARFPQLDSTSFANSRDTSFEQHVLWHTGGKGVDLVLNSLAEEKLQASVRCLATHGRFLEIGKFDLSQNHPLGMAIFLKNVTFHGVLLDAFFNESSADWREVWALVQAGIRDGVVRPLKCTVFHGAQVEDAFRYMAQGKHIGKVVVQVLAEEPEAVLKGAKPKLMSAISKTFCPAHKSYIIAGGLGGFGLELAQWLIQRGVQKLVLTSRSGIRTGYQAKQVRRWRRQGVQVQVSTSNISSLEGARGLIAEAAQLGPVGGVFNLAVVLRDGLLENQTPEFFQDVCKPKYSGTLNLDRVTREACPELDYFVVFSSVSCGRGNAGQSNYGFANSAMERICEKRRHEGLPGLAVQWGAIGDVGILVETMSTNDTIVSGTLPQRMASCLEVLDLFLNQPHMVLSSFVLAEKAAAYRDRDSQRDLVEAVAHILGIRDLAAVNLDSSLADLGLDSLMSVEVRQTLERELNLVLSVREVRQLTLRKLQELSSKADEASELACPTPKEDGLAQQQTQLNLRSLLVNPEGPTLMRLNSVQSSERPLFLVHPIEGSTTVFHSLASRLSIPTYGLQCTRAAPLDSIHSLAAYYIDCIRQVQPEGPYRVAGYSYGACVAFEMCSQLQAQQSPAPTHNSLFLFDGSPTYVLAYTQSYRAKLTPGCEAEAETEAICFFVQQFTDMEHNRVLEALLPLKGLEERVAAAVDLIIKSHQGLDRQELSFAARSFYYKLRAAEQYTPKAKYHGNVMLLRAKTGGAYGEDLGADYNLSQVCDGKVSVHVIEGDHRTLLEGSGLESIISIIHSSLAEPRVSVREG
# T2 sequence (P49327 whole entry): as the sequence (P49327 whole entry, the tested form may be a part) above
SMILES,IC50 (A2780 ovarian cells [1]),IC50 [2],IC50 (A2780 ovarian cells [3]),pIC50 [4],inhibition at 10 µM [4]
"Cc1ccc(C(=O)N2CCC(c3ccc(-c4cnn(C)c4)cc3)CC2)cc1NC(=O)c1ccc(Cl)nc1 [Compound 102, 6-Chloro-N-(2-methyl-5-(4-(4-(1-methyl-1H-pyrazol-4-yl)phenyl)piperidine-1-carbonyl)phenyl)nicotinamide]",> 10000 nM,38 nM,36.3 nM,7.73,105%
"COc1cc(C(=O)Nc2cc(C(=O)N3CCC(c4ccc(-c5cnn(C)c5)cc4)CC3)ccc2C)cc(Cl)n1 [Compound 103, 2-Chloro-6-methoxy-N-(2-methyl-5-(4-(4-(1-methyl-1H-pyrazol-4-yl)phenyl)piperidine-1-carbonyl)phenyl)isonicotinamide]",4570 nM,148 nM,141 nM,7.12,95%
"Cc1ccc(C(=O)N2CCC(c3ccc(-c4cnn(C)c4)cc3)CC2)cc1NC(=O)C1CCOCC1 [Compound 104, N-(2-methyl-5-(4-(4-(1-methyl-1H-pyrazol-4-yl)phenyl)piperidine-1-carbonyl)phenyl)tetrahydro-2H-pyran-4-carboxamide]",> 10000 nM,87.1 nM,70.8 nM,7.37,104%
"COc1ccccc1C(=O)Nc1cc(C(=O)N2CCC(c3ccc(-c4cnn(C)c4)cc3)CC2)ccc1C [Compound 105, 2-methoxy-N-(2-methyl-5-(4-(4-(1-methyl-1H-pyrazol-4-yl)phenyl)piperidine-1-carbonyl)phenyl)benzamide]",3020 nM,617 nM,955 nM,6.51,86%
"Cc1ccc(C(=O)N2CC(c3ccc(-c4cnn(C)c4)cc3)C2)cc1NC(=O)c1ccc(N2CCCC2)nc1 [Compound 106, N-(2-methyl-5-(3-(4-(1-methyl-1H-pyrazol-4-yl)phenyl)azetidine-1-carbonyl)phenyl)-6-(pyrrolidin-1-yl)nicotinamide]",> 15100 nM,24.5 nM,79.4 nM,7.97,113%
"CC(C)Nc1ccc(C(=O)Nc2cc(C(=O)N3CC(c4ccc(-c5ccnn5C)cc4)C3)ccc2Cl)cn1 [Compound 108, N-(2-chloro-5-(3-(4-(1-methyl-1H-pyrazol-5-yl)phenyl)azetidine-1-carbonyl)phenyl)-6-(isopropylamino)nicotinamide]",~407 nM,60.3 nM,93.3 nM,7.44,103%
"Cc1ccc(C(=O)N2CC(c3ccc(-c4cnn(C)c4)cc3)C2)cc1NC(=O)c1ccc(NC2CCC2)nc1 [Compound 109, 6-(cyclobutylamino)-N-(2-methyl-5-(3-(4-(1-methyl-1H-pyrazol-4-yl)phenyl)azetidine-1-carbonyl)phenyl)nicotinamide]",> 15100 nM,31.6 nM,~23.4 nM,7.84,119%
"COc1ccc(C(=O)Nc2cc(C(=O)N3CCC(c4ccc(-c5cnn(C)c5)cc4)CC3)ccc2C)cn1 [Compound 113, 6-methoxy-N-(2-methyl-5-(4-(4-(1-methyl-1H-pyrazol-4-yl)phenyl)piperidine-1-carbonyl)phenyl)nicotinamide]",> 10000 nM,47.9 nM,67.6 nM,7.54,104%
"Cc1ccc(C(=O)N2CCC(c3ccc(-c4cnn(C)c4)cc3)CC2)cc1NC(=O)c1cnccc1Cl [Compound 114, 4-chloro-N-(2-methyl-5-(4-(4-(1-methyl-1H-pyrazol-4-yl)phenyl)piperidine-1-carbonyl)phenyl)nicotinamide]",> 10000 nM,631 nM,537 nM,6.50,92%
"Cc1ccc(C(=O)N2CCC(c3ccc(-c4cnn(C)c4)cc3)CC2)cc1NC(=O)c1ccc(F)cc1 [Compound 116, 4-fluoro-N-(2-methyl-5-(4-(4-(1-methyl-1H-pyrazol-4-yl)phenyl)piperidine-1-carbonyl)phenyl)benzamide]",> 10000 nM,93.3 nM,126 nM,7.36,101%
"Cc1ccc(C(=O)N2CCC(c3ccc(-c4cnn(C)c4)cc3)CC2)cc1NC(=O)c1ccccc1F [Compound 117, 2-fluoro-N-(2-methyl-5-(4-(4-(1-methyl-1H-pyrazol-4-yl)phenyl)piperidine-1-carbonyl)phenyl)benzamide]",> 10000 nM,83.2 nM,138 nM,7.48,99%
"Cc1ccc(C(=O)N2CCC(c3ccc(-c4cnn(C)c4)cc3)CC2)cc1NC(=O)c1ccc(N(C)C)cn1 [Compound 119, 5-(dimethylamino)-N-(2-methyl-5-(4-(4-(1-methyl-1H-pyrazol-4-yl)phenyl)piperidine-1-carbonyl)phenyl)picolinamide]",6460 nM,141 nM,191 nM,7.19,98%
"Cc1ccc(C(=O)N2CCC(c3ccc(-c4cnn(C)c4)cc3)CC2)cc1NC(=O)c1ccc(F)c(F)c1F [Compound 120, 2,3,4-trifluoro-N-(2-methyl-5-(4-(4-(1-methyl-1H-pyrazol-4-yl)phenyl)piperidine-1-carbonyl)phenyl)benzamide]",~10000 nM,97.7 nM,145 nM,7.35,95%
"Cc1ccc(C(=O)N2CCC(c3ccc(-c4cnn(C)c4)cc3)CC2)cc1NC(=O)c1c(Cl)cccc1Cl [Compound 121, 2,6-dichloro-N-(2-methyl-5-(4-(4-(1-methyl-1H-pyrazol-4-yl)phenyl)piperidine-1-carbonyl)phenyl)benzamide]",8510 nM,794 nM,1000 nM,6.42,87%
"Cc1ccc(C(=O)N2CCC(c3ccc(-c4cnn(C)c4)cc3)CC2)cc1NC(=O)c1ccc(Cl)cc1Cl [Compound 122, 2,4-dichloro-N-(2-methyl-5-(4-(4-(1-methyl-1H-pyrazol-4-yl)phenyl)piperidine-1-carbonyl)phenyl)benzamide]",> 10000 nM,75.9 nM,117 nM,7.73,101%
"Cc1ccc(C(=O)N2CCC(c3ccc(-c4cnn(C)c4)cc3)CC2)cc1NC(=O)c1ccc(Cl)c(Cl)c1 [Compound 123, 3,4-dichloro-N-(2-methyl-5-(4-(4-(1-methyl-1H-pyrazol-4-yl)phenyl)piperidine-1-carbonyl)phenyl)benzamide]",6760 nM,77.6 nM,162 nM,7.27,97%
"Cc1ccc(C(=O)N2CCC(c3ccc(-c4cnn(C)c4)cc3)CC2)cc1NC(=O)C1CCN(Cc2ccccc2)CC1 [Compound 124, 1-benzyl-N-(2-methyl-5-(4-(4-(1-methyl-1H-pyrazol-4-yl)phenyl)piperidine-1-carbonyl)phenyl)piperidine-4-carboxamide]",5370 nM,81.3 nM,33.9 nM,7.59,105%
"Cc1ccc(C(=O)N2CC(c3ccc(-c4cnn(C)c4)cc3)C2)cc1NC(=O)C1CCCCC1 [Compound 125, N-(2-methyl-5-(3-(4-(1-methyl-1H-pyrazol-4-yl)phenyl)azetidine-1-carbonyl)phenyl)cyclohexanecarboxamide]",4790 nM,79.4 nM,132 nM,7.35,104%
"CSc1ccc(C(=O)Nc2cc(C(=O)N3CCC(c4ccc(-c5cnn(C)c5)cc4)CC3)ccc2C)cc1 [Compound 126, N-(2-methyl-5-(4-(4-(1-methyl-1H-pyrazol-4-yl)phenyl)piperidine-1-carbonyl)phenyl)-4-(methylthio)benzamide]",> 10000 nM,32.4 nM,26.3 nM,7.52,110%
"Cc1ccc(F)c(C(=O)Nc2cc(C(=O)N3CCC(c4ccc(-c5cnn(C)c5)cc4)CC3)ccc2C)c1 [Compound 127, 2-fluoro-5-methyl-N-(2-methyl-5-(4-(4-(1-methyl-1H-pyrazol-4-yl)phenyl)piperidine-1-carbonyl)phenyl)benzamide]",4470 nM,389 nM,562 nM,6.74,98%
